Read-outs that look alike come from different tables or passages of the source.
What was measured:
F1F0-ATPase = target: T1, F1F0-ATPase (Bos taurus, UniProt P13621); assay: Inhibition of F1F0-ATPase activity in synthesizing ATP (ATP synthesis inhibition); assay type: biochemical; conditions: detection limit IC50=16 μM, read-out: ATP Syn IC50
T1 construct: from tissue
Description: (§1) Exemplary compounds described in above Examples were tested for activity against F1F0-ATPase by measuring the ability of the compounds to inhibit ATP synthesis. In addition, the compounds were assessed for cytotoxicity in Ramos cells. Inhibition of F1F0-ATPase activity in synthesizing ATP and cytotoxicity in Ramos cells were measured according to the procedures described in K. M. Johnson et al. Chemistry & Biology 2005, 12, 485-496.

Ramos cells = assay: Cytotoxicity in Ramos cells; assay type: cell-based; conditions: detection limit EC50=16 μM, read-out: Ramos Cell EC50
Description: as §1

Row | IC50 (F1F0-ATPase) [µM] | SMILES | EC50 (Ramos cells) [µM] | EC50 (Ramos cells; Homo sapiens) [µM]
1 | < 5 | COc1ccc(-c2cc(NC(=NC(=O)c3cn(C)nc3C(F)(F)F)NCC(C)(C)C)[nH]n2)cc1F [Compound A-130] |  | < 5
2 | < 5 | COc1ccc(-c2cc(N/C(=N\C(=O)c3cn(C)nc3C(F)(F)F)Nc3cc(F)cc(Cl)c3)n[nH]2)cc1F [Compound A-131] | > 16 | 
3 | 5 to 16 | COC[C@H](C)N/C(=N/C(=O)c1cn(C)nc1C(F)(F)F)Nc1cc(-c2ccc(OC)c(F)c2)n[nH]1 [Compound A-132] | 5 to 16 | 
4 | < 5 | COc1ccc(-c2cc(N/C(=N\C(=O)c3cn(C)nc3C(F)(F)F)Nc3ccc(F)cc3Cl)[nH]n2)cc1F [Compound A-147] | > 16 | 
5 | 5 to 16 | COc1ccc(-c2cc(N/C(=N\C(=O)c3cn(C)nc3C(F)(F)F)Nc3ccc(C(C)(C)C)cc3)[nH]n2)cc1F [Compound A-148] | 5 to 16 | 
6 | < 5 | Cn1cc(C(=O)N=C(Nc2ccc(F)cc2)Nc2cc(-c3ccc(O)cc3F)n[nH]2)c(C(F)(F)F)n1 [Compound A-150] |  | < 5
7 | < 5 | Cn1cc(C(=O)/N=C(\Nc2cc(-c3ccc(O)c(F)c3)n[nH]2)Nc2ccc(F)cc2Cl)c(C(F)(F)F)n1 [Compound A-153] | < 5 | 
8 | < 5 | COc1ccc(-c2cc(N/C(=N\C(=O)c3cn(C)nc3C(F)(F)F)Nc3cccc(Cl)c3)[nH]n2)cc1F [Compound A-154] | > 16 | 
9 | < 5 | COc1ccc(-c2cc(NC(=NC(=O)c3cn(C)nc3C(F)(F)F)Nc3ccc(F)c(Cl)c3)[nH]n2)cc1F [Compound A-155] |  | > 16
10 | < 5 | COc1ccc(-c2cc(N/C(=N\C(=O)c3cn(C)nc3C(F)(F)F)Nc3ccc(F)cc3)[nH]n2)cc1F [Compound A-156] | > 16 | 
11 | < 5 | COc1ccc(-c2cc(N/C(=N\C(=O)c3cn(C)nc3C(F)(F)F)Nc3cccc(F)c3)[nH]n2)cc1F [Compound A-157] | 5 to 16 | 
12 | < 5 | COc1ccc(-c2cc(N/C(=N\C(=O)c3cn(C)nc3C(F)(F)F)Nc3ccccc3C(C)(C)C)[nH]n2)cc1F [Compound A-158] | > 16 | 
13 | 5 to 16 | COc1ccc(-c2cc(N/C(=N\C(=O)c3cn(C)nc3C(F)(F)F)Nc3ccccc3C(F)(F)F)[nH]n2)cc1F [Compound A-159] | > 16 | 
14 | 5 to 16 | COc1ccc(-c2cc(N/C(=N\C(=O)c3cn(C)nc3C(F)(F)F)Nc3cc(Cl)ccc3F)[nH]n2)cc1F [Compound A-160] | > 16 | 
15 | < 5 | COc1ccc(-c2cc(N/C(=N\C(=O)c3cn(C)nc3C(F)(F)F)Nc3ccc(F)cc3F)[nH]n2)cc1F [Compound A-161] | > 16 | 
16 | < 5 | Cn1cc(C(=O)/N=C(/Nc2cccc(Cl)c2)Nc2cc(-c3ccc(O)c(F)c3)n[nH]2)c(C(F)(F)F)n1 [Compound A-162] | < 5 | 
17 | < 5 | Cn1cc(C(=O)/N=C(/Nc2ccc(F)c(Cl)c2)Nc2cc(-c3ccc(O)c(F)c3)n[nH]2)c(C(F)(F)F)n1 [Compound A-163] | < 5 | 
18 | < 5 | Cn1cc(C(=O)/N=C(/Nc2ccc(F)cc2)Nc2cc(-c3ccc(O)c(F)c3)n[nH]2)c(C(F)(F)F)n1 [Compound A-164] | < 5 | 
19 | < 5 | Cn1cc(C(=O)/N=C(/Nc2cccc(F)c2)Nc2cc(-c3ccc(O)c(F)c3)n[nH]2)c(C(F)(F)F)n1 [Compound A-166] | < 5 | 
20 | < 5 | Cn1cc(C(=O)/N=C(\Nc2cc(-c3ccc(O)c(F)c3)n[nH]2)Nc2ccccc2C(C)(C)C)c(C(F)(F)F)n1 [Compound A-167] | < 5 | 
21 | < 5 | Cn1cc(C(=O)N=C(Nc2cc(-c3ccc(O)c(F)c3)n[nH]2)Nc2cc(Cl)ccc2F)c(C(F)(F)F)n1 [Compound A-168] |  | 5 to 16

Further lines, the compound ahead of its results:

Row | SMILES | IC50 (F1F0-ATPase) [µM] | EC50 (Ramos cells) [µM] | EC50 (Ramos cells; Homo sapiens) [µM]
22 | Cc1cc(C(=O)/N=C(\Nc2cc(-c3cc(F)cc(F)c3)[nH]n2)NC(C)(C)C)c(C(F)(F)F)o1 [Compound A-114] | 5 to 16 | 5 to 16 | 
23 | Cc1cc(C(=O)/N=C(/Nc2cc(F)cc(Cl)c2)Nc2cc(-c3cc(F)cc(F)c3)[nH]n2)c(C(F)(F)F)o1 [Compound A-115] | < 5 | 5 to 16 | 
24 | Cc1cc(C(=O)/N=C(/NCC(C)C)Nc2cc(-c3cc(F)cc(F)c3)[nH]n2)c(C(F)(F)F)o1 [Compound A-116] | < 5 | < 5 | 
25 | Cc1cc(C(=O)/N=C(\Nc2cc(-c3cc(F)cc(F)c3)[nH]n2)NC(C)C)c(C(F)(F)F)o1 [Compound A-117] | < 5 | 5 to 16 | 
26 | COC[C@H](C)N/C(=N/C(=O)c1cc(C)oc1C(F)(F)F)Nc1cc(-c2cc(F)cc(F)c2)n[nH]1 [Compound A-118] | < 5 | 5 to 16 | 
27 | Cc1nc(C(=O)/N=C(\Nc2cc(-c3ccc(F)cc3)[nH]n2)NC(C)(C)C)c(C(F)(F)F)o1 [Compound A-119] | < 5 | 5 to 16 | 
28 | Cc1nnsc1C(=O)/N=C(/NCC(C)C)Nc1cc(-c2ccc(F)cc2)[nH]n1 [Compound A-120] | > 16 | > 16 | 
29 | CCOCCN/C(=N/C(=O)c1snnc1C)Nc1cc(-c2ccc(F)cc2)[nH]n1 [Compound A-121] | > 16 | > 16 | 
30 | Cc1nnsc1C(=O)/N=C(\Nc1cc(-c2ccc(F)cc2)[nH]n1)NC1CCCC1 [Compound A-122] | > 16 | > 16 | 
31 | Cc1oncc1C(=O)/N=C(/NCC(C)C)Nc1cc(-c2ccc(F)cc2)[nH]n1 [Compound A-123] | > 16 | > 16 | 
32 | Cc1oncc1C(=O)N=C(Nc1cc(-c2ccc(F)cc2)n[nH]1)NC1CCCC1 [Compound A-124] | > 16 |  | > 16
33 | Cc1oncc1C(=O)/N=C(\Nc1cc(-c2ccc(F)cc2)[nH]n1)NC1CCC1 [Compound A-125] | > 16 | > 16 | 
34 | CCOC(=O)NC1CCC(N/C(=N\C(=O)c2cc(C)oc2C(F)(F)F)NCc2ccc(F)cc2Cl)CC1 (centres unmarked) [Compound A-126] | < 5 |  | < 5
35 | CCOC(=O)NC1CCC(N/C(=N\C(=O)c2cc(C)oc2C(F)(F)F)Nc2cc(F)cc(Cl)c2)CC1 (centres unmarked) [Compound A-127] | < 5 |  | < 5
36 | COc1ccc(-c2cc(N/C(=N\C(=O)c3cn(C)nc3C(F)(F)F)NC(C)(C)C)n[nH]2)cc1F [Compound A-128] | 5 to 16 | < 5 | 
37 | COc1ccc(-c2cc(N/C(=N\C(=O)c3cn(C)nc3C(F)(F)F)NC3CCCC3)n[nH]2)cc1F [Compound A-129] | 5 to 16 | < 5 | 
38 | COc1ccc(-c2cc(N/C(=N\C(=O)c3cn(C)nc3C(F)(F)F)NCC(C)C)n[nH]2)cc1F [Compound A-133] | < 5 | < 5 | 

Row | SMILES | IC50 (F1F0-ATPase) [µM] | EC50 (Ramos cells) [µM] | EC50 (Ramos cells; Homo sapiens) [µM]
39 | Cn1cc(C(=O)/N=C(\Nc2cc(-c3ccc(O)c(F)c3)[nH]n2)NC2CCCC2)c(C(F)(F)F)n1 [Compound A-134] | 5 to 16 | > 16 | 
40 | Cn1cc(C(=O)/N=C(/NCC(C)(C)C)Nc2cc(-c3ccc(O)c(F)c3)[nH]n2)c(C(F)(F)F)n1 [Compound A-135] | 5 to 16 | < 5 | 
41 | Cn1cc(C(=O)/N=C(\Nc2cc(-c3ccc(O)cc3F)[nH]n2)NC(C)(C)C)c(C(F)(F)F)n1 [Compound A-136] | < 5 | < 5 | 
42 | Cn1cc(C(=O)N=C(Nc2cc(-c3ccc(O)cc3F)n[nH]2)NC2CCCC2)c(C(F)(F)F)n1 [Compound A-137] | > 16 |  | > 16
43 | Cn1cc(C(=O)/N=C(/NCC(C)(C)C)Nc2cc(-c3ccc(O)cc3F)[nH]n2)c(C(F)(F)F)n1 [Compound A-138] | > 16 | > 16 | 
44 | Cn1cc(C(=O)/N=C(/Nc2cccc(F)c2)Nc2cc(-c3ccc(O)cc3F)[nH]n2)c(C(F)(F)F)n1 [Compound A-139] | < 5 | < 5 | 
45 | COC[C@H](C)N/C(=N/C(=O)c1cn(C)nc1C(F)(F)F)Nc1cc(-c2ccc(O)cc2F)n[nH]1 [Compound A-140] | > 16 | > 16 | 
46 | Cn1cc(C(=O)/N=C(\Nc2n[nH]c3cncc(F)c23)NC(C)(C)C)c(C(F)(F)F)n1 [Compound A-141] | 5 to 16 | 5 to 16 | 
47 | COCC(C)NC(=NC(=O)c1cn(C)nc1C(F)(F)F)Nc1n[nH]c2cncc(F)c12 (centres unmarked) [Compound A-142] | > 16 |  | 5 to 16
48 | CC(C)CNC(=NC(=O)c1cn(C)nc1C(F)(F)F)Nc1n[nH]c2cncc(F)c12 [Compound A-143] | > 16 |  | 5 to 16
49 | Cn1cc(C(=O)/N=C(/NCC(C)(C)C)Nc2n[nH]c3cncc(F)c23)c(C(F)(F)F)n1 [Compound A-144] | 5 to 16 | > 16 | 
50 | COc1ccc(F)c(-c2cc(N/C(=N\C(=O)c3cn(C)nc3C(F)(F)F)NC(C)(C)C)n[nH]2)c1 [Compound A-145] | 5 to 16 | 5 to 16 | 
51 | COc1ccc(-c2cc(N/C(=N\C(=O)c3cn(C)nc3C(F)(F)F)NC(C)C)n[nH]2)cc1F [Compound A-146] | 5 to 16 | < 5 | 
52 | CC(C)N/C(=N/C(=O)c1cn(C)nc1C(F)(F)F)Nc1cc(-c2ccc(O)cc2F)n[nH]1 [Compound A-149] | > 16 | > 16 | 
53 | Cn1cc(C(=O)/N=C(/Nc2ccc(C(C)(C)C)cc2)Nc2cc(-c3ccc(O)cc3F)n[nH]2)c(C(F)(F)F)n1 [Compound A-151] | < 5 | < 5 | 
54 | CC(C)N/C(=N/C(=O)c1cn(C)nc1C(F)(F)F)Nc1cc(-c2ccc(O)c(F)c2)n[nH]1 [Compound A-152] | 5 to 16 | 5 to 16 | 
55 | Cn1cc(C(=O)/N=C(/Nc2ccc(C(C)(C)C)cc2)Nc2cc(-c3ccc(O)c(F)c3)n[nH]2)c(C(F)(F)F)n1 [Compound A-165] | < 5 | < 5 | 

From patent US9221814B2, “Heterocyclic guanidine F1F0-atpase inhibitors and therapeutic uses thereof” (Lycera Corporation, priority 2012, dated 2015)
